Results as given in US10052330B2, “Substituted pyrido[3,4-b]pyrazines as Syk inhibitors” (HUTCHISON MEDIPHARMA LIMITED, priority 2011, dated 2018).

Columns and labels:
[1] = target: Syk kinase (Homo sapiens, UniProt P43405); assay: Syk kinase enzymatic assay (Kit-Tyr 2 Peptide); assay type: biochemical; conditions: 8 concentrations, 1 μM down to 0.0003 μM; upper bound of each range is 'less than'; read-out: IC50: Enzymatic Activity (Syk kinase)
[2] = system: RBL-2H3 cells; assay: IgE-induced Beta-hexosaminidase secretion in RBL-2H3 cells; assay type: cell-based; conditions: Rattus norvegicus, RBL-2H3, RBL-2H3 cells sensitized with SPE-7, stimulated with DNP-BSA; upper bound of each range is 'less than'; read-out: IC50, IgE-induced Beta-hexosaminidase secretion
[3] = system: Bone marrow mast cells (BMMCs); assay: IgE-induced LAT phosphorylation in bone marrow mast cells; assay type: cell-based, mice; conditions: Mus musculus, BMMC; BMMCs from female BALB/C mice, sensitized with SPE-7, stimulated with DNP-BSA; upper bound is 'less than'; read-out: IC50, IgE-induced LAT phosphorylation

Row | Structure (SMILES) | IC50 [1] [nM] | IC50 [2] [nM] | IC50 [3] [nM]
1 | OC[C@H]1CCN(c2nc(-c3ccc(N4CCOCC4)cc3)cc3nccnc23)C1 [Compound 163, (S)-(1-(7-(4-morpholinophenyl)pyrido[4,3-b]pyrazin-5-yl)pyrrolidin-3-yl)methanol] | 100 to 1000 | 1 to 100 | 100 to 1000
2 | CN(C)c1ccc(-c2cc3nccnc3c(NCCCN)n2)cc1 [Compound 185] | 1 to 100 | 100 to 1000 | 100 to 1000
3 | NC(=O)CCNc1nc(-c2ccc(N3CCOCC3)cc2)cc2nccnc12 [Compound 188] | 100 to 1000 | 1 to 100 | 100 to 1000

Further lines, with some results ahead:

Row | IC50 [1] [nM] | Structure (SMILES) | IC50 [2] [nM] | IC50 [3] [nM]
4 | 1 to 100 | FC1CNCC(CNc2nc(-c3ccc(N4CCOCC4)cc3)cc3nccnc23)C1 (stereo not drawn) [Compound 156] | 1 to 100 | 100 to 1000
5 | 100 to 1000 | OC[C@@H]1CCN(c2nc(-c3ccc(N4CCOCC4)cc3)cc3nccnc23)C1 [Compound 159, (R)-(1-(7-(4-morpholinophenyl)pyrido[4,3-b]pyrazin-5-yl)pyrrolidin-3-yl)methanol] | 1 to 100 | 100 to 1000
6 | 100 to 1000 | C[C@H](O)CNc1nc(-c2ccc(N3CCOCC3)cc2)cc2nccnc12 [Compound 161] | 100 to 1000 | 100 to 1000
